The record followed here is US12723037B2, “Triazole derivative, method for preparing same, and use thereof” (SHENZHEN JIKANG PHARMACEUTICAL TECHNOLOGY CO., LTD., priority 2021, dated 2026).

Where two headings read alike, the source gives them in different places.

The nature of series [1]: In vivo toxicity assay in BALB/C mice (21 days, intragastric, once daily). How it is done: IV. In Vivo Toxicity Assay of Candidate Compounds in BALB/C
25 BALB/C mice were randomly divided into the following 5 groups: solvent control group (Control), positive control KPT-8602 (30 mg/kg, once daily) group, KPT-8602 (60 mg/kg, once daily) group, compound I (30 mg/kg, once daily) group, and compound I (60 mg/kg, once daily) group, with 5 mice in each group. Each group was intragastrically given a test compound at a corresponding concentration at a dose of 3 mL/kg. KPT-8602 and compound I were administered daily for 21 consecutive days.

The subject of another series is RPMI8226 cells. In words: Cytotoxicity experiment (Cell-Titer, 72 h) in RPMI8226 cells. The following applies: for IC50: Homo sapiens, RPMI-8226, 72 h, Cell-Titer. It counts as cell-based. The procedure:
4. Cytotoxicity Experiment
• (1) RPMI8226 cells in the logarithmic growth phase were added to a 384-well plate at 1000 cells/well in a volume of 18 μL/well and incubated at 37° C., 5% CO2 for 24 h. • (2) The test compound at a stock concentration of 10 mM was diluted 10-fold with DMSO and then 100-fold with a serum-free 1640 medium to give a dilution at a working concentration of 10 μM containing 1% DMSO. 10 concentrations were then obtained by 2-fold serial dilution using a serum-free 1640 medium containing 1% DMSO, with the tenth concentration point being a solvent control group (no drug). The diluted compound was added into the plated cell plate at 2 μL/well to give final compound concentrations from 1000 nM (2-fold gradient dilution, 10 concentration gradients), and 4 replicates were set for each concentration. 1% DMSO was used as a solvent control and KPT-8602 as a positive control. • (3) The cells were incubated at 37° C. for 72 h, and 10 μL of Cell-Titer assay reagent was added to each well, followed by incubation in a cell incubator for 10 min. • (4) The mixture was well mixed by shaking and then assayed by the Cell-Titer program running on a microplate reader. The inhibition % and IC50 values (μM) were calculated using GraphPad Prism 5.

A short description of series [2]: Pharmacokinetic results of the drugs in SD rats. It counts as in vivo. The following applies: for clearance: read-out: Cl s, spp. The source says: III. Pharmacokinetic Results of the Drugs in SD Rats
The mark [3] stands for this setting: 30 mg/kg once daily, intragastric, 21 days.
[4] abbreviates: rat, in vivo, po (10 mg/kg), read-out: AUC0-inf.

By IC50 is commonly meant the concentration at which inhibition is half-maximal. Lower therefore signals greater potency in that assay. Usually Cmax stands for the peak of the concentration-time curve. Broadly, the MRT is a mean duration of stay, worked out from the concentration-time curve. By half-life is commonly meant the time in which the quantity being followed falls by half. Read a low half-life as rapid decline. The term Tmax denotes the time at which the peak concentration occurs. One may read the bioavailability as dose-corrected exposure relative to a reference, in per cent. High values mean good availability, low ones poor availability. For `CONC(=O)/C(=C/n1cnc(-c2cc(C(F)(F)F)cc(C(F)(F)F)c2)n1)c1cncnc1` [Compound I, (E)-3-(3-(3,5-Bis(trifluorometh-yl)phenyl)-1H-1,2,4-triazol-1-yl)-N-methoxy-2-(pyri-midin-5-yl)acrylamide], in series [1] (setting [3]), the body weight change result is listed as “body weights comparable to the blank”. The body weight change result in series [1] (60 mg/kg once daily, intragastric, 21 days) is listed as “body weights comparable to the blank”. Further, the “safety (overall conclusion)” value in series [1] (30 and 60 mg/kg once daily, 21 days) was “good safety”. Moreover, in the series on RPMI8226 cells, the “cellular activity compared with KPT-8602” value is recorded as “substantially equivalent to KPT-8602” and the IC50 turned out to be 370 nM. In series [2] (iv (2 mg/kg), in ng·h/mL), this compound registered an AUC0-inf of 1493 and an AUC0-t of 1301. In addition, in series [2] (iv and po), the “intravenous and oral AUCs compared with KPT-8602” value is “much higher than those of KPT-8602”; the “oral and intravenous half-lives compared with KPT-8602” value is “longer than those of KPT-8602”. In series [2] (po), the “oral half-life compared with KPT-8602” value is on record as “about 2 times”. In series [2] (po (10 mg/kg)), the Cl s, spp stood at 43.8 mL/min/kg and the “Cmax” value turned out to be 899 ng/mL. Further, in series [2] (rat, in vivo, iv (2 mg/kg)), the MRT stood at 2.49 h, the half-life is 254 min and the clearance was 24.2 mL/min/kg. For the same compound, in series [2] (rat, in vivo, po (10 mg/kg)), the mean residence time MRT came out at 7.65 h, the Tmax came to 15 min, the bioavailability was determined as 55.9% and the half-life is 335 min. The AUC0-inf in series [2] (setting [4]) was 3890 ng·h/mL. Also, in series [2] (rat, in vivo, po (10 mg/kg), read-out: AUC0-t), the AUC0-t is 3210 ng·h/mL.
In turn, `O=C(NO)/C(=C/n1cnc(-c2cc(C(F)(F)F)cc(C(F)(F)F)c2)n1)c1cncnc1` [II, (E)-3-(3-(3,5-Bis(trifluorometh-yl)phenyl)-1H-1,2,4-triazol-1-yl)-N-hydroxy-2-(pyri-midin-5-yl)acrylamide] had a half-inhibitory concentration (IC50) with RPMI8226 cells of 6900 nM.
In the series with RPMI8226 cells, `CO/C(=N\C(C)(C)C)NC(=O)/C(=C/n1cnc(-c2cc(C(F)(F)F)cc(C(F)(F)F)c2)n1)c1cncnc1` [III, Methyl(Z)-N-((E)-3-(3-(3,5-bis(trifluoromethyl)phenyl)-1H-1,2,4-triazol-1-yl)-2-(py-rimidin-5-yl)acryloyl)-N′-(tert-butyl)carbamate] displayed an IC50 of 7100 nM.
Consider `CCONC(=O)/C(=C/n1cnc(-c2cc(C(F)(F)F)cc(C(F)(F)F)c2)n1)c1cncnc1` [IV, (E)-3-(3-(3,5-Bis(trifluorometh-yl)phenyl)-1H-1,2,4-triazol-1-yl)-N-ethoxy-2-(pyrimi-din-5-yl)acrylamide], for which, in the series on RPMI8226 cells, the “cellular activity compared with KPT-8602” value is on record as “substantially equivalent to KPT-8602” and the IC50 was found to be 540 nM.
For `NC(=O)/C(=C/n1cnc(-c2cc(C(F)(F)F)cc(C(F)(F)F)c2)n1)c1cncnc1` [KPT-8602, reference compound], the body weight change entry in series [1] (setting [3]) is recorded as “significant decrease in body weight”. The “mortality by day 10” value in series [1] (60 mg/kg once daily, intragastric) was “all died”. In series [1] (60 mg/kg once daily, intragastric, 5 mice per group), the “mice died on day 7” value is given as “two”. This compound also came in with an IC50 in the series with RPMI8226 cells of 340 nM. Moreover, in series [2] (iv (2 mg/kg), in ng·h/mL), the AUC0-inf is on record as 998 and the AUC0-t was found to be 963. For the same compound, in series [2] (po (10 mg/kg)), the Cl s, spp was 67.4 mL/min/kg. This compound showed an AUC0-t in series [2] (po (10 mg/kg), in ng·h/mL) of 2541. Moreover, in series [2] (rat, in vivo, iv (2 mg/kg)), the MRT worked out at 2.48 h, the half-life was 182 min and the clearance turned out to be 34.4 mL/min/kg. Also, in series [2] (rat, in vivo, po (10 mg/kg)), the mean residence time (MRT) was found to be 3.85 h, the time to peak (Tmax) came out at 60 min, the bioavailability was 52% and the half-life is 161 min. Besides, the AUC0-inf in series [2] (setting [4]) came to 2600 ng·h/mL. Further, in series [2] (rat, in vivo, po (10 mg/kg), read-out: Cmax), the Cmax worked out at 720 ng/mL.
